Assay results: US20200172549A1, “NOVEL CHLORIN E6-CURCUMIN DERIVATIVES, PREPARATION METHOD THEREOF, AND PHARMACEUTICAL COMPOSITION CONTAINING THE SAME FOR TREATMENT OF CANCER” (DONG SUNG PHARM. CO., LTD., priority 2017, published 2020)

Assays:
[1] = system: MIA-PaCa-2; assay: Phototoxicity (PDT), MTT assay, MIA-PaCa-2; type: cell-based; conditions: for Cell viability, Phototoxicity against MIA-PaCa-2: 3 h, 50 mW 0.09 J/cm^2 laser 100 sec, 72 h incubation
Protocol: (§1) Phototoxicity: The culture of AsPC-1 pancreatic cancer cells were grown in RPMI-1640 medium (life technologies corporation, USA) supplemented with 10% heat-inactivated fetal bovine serum (life technologies corporation, USA) and 1% penicillin (life technologies corporation, USA), whereas MIA-paca2 and PANC-1 cells were grown in DMEM. The MTT assay was used to assess the cell viability of AsPC-1, MIA-paca2, PANC-1 cells. The cells attached to a 96-well plate (5,000 cells/well) were treated with 3.125 μM, 6.25 μM, 12.5 μM, 25 μM, 50 μM of photosensitizers, 7, 10, 13, 16, and 3 for 3 h. The photosensitized cells were then irradiated with a 50 mW, 0.09 J/cm^2 laser for 100 sec. The cells were then incubated for 72 h at 37° C. in a 5% CO2 incubator and exposed to MTT [3-(4,5-dimethylthiazol-2-yl)-2,5-diphenyl-tetrazolium bromide] (250 μg/ml) for 3 h. The solution was changed to 200 μl of dimethylsulfoxide (DMSO, Sigma). After 30 min incubation and shaking in microplate mixer, the optical density (OD) was measured using a microplate reader (Thermo Fisher scientific, USA) at 570 nm wavelength. The cell viability was calculated using the following formula: Cell viability (%)=Mean optical density of treated wells/Mean optical density of control wells×100.

[2] = Photophysical properties (absorption) in DMSO; type: physicochemical
Protocol: The photophysical properties of Ce6-curcumin conjugates and dimethyl ester ce6 were analyzed in dimethyl sulfoxide (DMSO). All the photosensitizers 7, 10, 13, and 16 (Formula IV) effectively absorbed the red light compared to dimethyl ester ce6. The major soret peak at λmax=405-408 nm and Q-bands at 667 nm for the photosensitizers 7, 10, 13, and 16 (Formula IV) and Q band peak at 656 for dimethyl ester ce6.

[3] = system: AsPC-1 pancreatic cancer cells; assay: Dark cytotoxicity, MTT assay, AsPC-1; type: cell-based; conditions: 3 h, no light, 72 h incubation
Protocol: as §1, with “Dark cytotoxicity:” for “Phototoxicity:”, “1” for “1%”, “h.” for “h. The photosensitized cells were then irradiated with a 50 mW, 0.09 J/cm^2 laser for 100 sec.”

[4] = system: MIA-PaCa-2; assay: Dark cytotoxicity, MTT assay, MIA-PaCa-2; type: cell-based; conditions: 3 h, no light, 72 h incubation
Protocol: as §1, with “Dark cytotoxicity:” for “Phototoxicity:”, “1” for “1%”, “h.” for “h. The photosensitized cells were then irradiated with a 50 mW, 0.09 J/cm^2 laser for 100 sec.”

[5] = system: AsPC-1 pancreatic cancer cells; assay: Phototoxicity (PDT), MTT assay, AsPC-1; type: cell-based; conditions: for Cell viability, Phototoxicity against AsPC-1: 3 h, 50 mW 0.09 J/cm^2 laser 100 sec, 72 h incubation
Protocol: as §1

[6] = system: PANC-1; assay: Phototoxicity (PDT), MTT assay, PANC-1; type: cell-based; conditions: for Cell viability, Phototoxicity against PANC-1: 3 h, 50 mW 0.09 J/cm^2 laser 100 sec, 72 h incubation
Protocol: as §1

[7] = 12.5 μM concentration, with light

## C=Cc1c(C)c2cc3nc(c(CC(=O)OC)c4[nH]c(cc5nc(cc1[nH]2)C(C)=C5CC)c(C)c4C(=O)NCCCNC(=O)CCCC(=O)Oc1ccc(/C=C/C(=O)CC(=O)/C=C/c2ccc(O)c(OC)c2)cc1OC)C(CCC(=O)OC)C3C (centres unmarked) [Compound 7, Chlorine e6-curcumin Conjugate (7)]
[1]; 3.12 μM photosensitizer
  Cell viability, Phototoxicity against MIA-PaCa-2: 69.70%
[1]; 6.25 μM photosensitizer
  Cell viability, Phototoxicity against MIA-PaCa-2: 12.35%
[1]; [7]
  Inhibition of MIA-PaCa-2 (PDT): 94%
[1]; 12.5 μM photosensitizer
  Cell viability, Phototoxicity against MIA-PaCa-2: 6.03%
[1]; 25 μM photosensitizer
  Cell viability, Phototoxicity against MIA-PaCa-2: 5.18%
[1]; 50 μM photosensitizer
  Cell viability, Phototoxicity against MIA-PaCa-2: 4.99%
[2]
  Q-band peak: 667 nm
[3]; 3.12 μM photosensitizer
  Cell viability, Dark Cytotoxicity against AsPC-1: 100.58%
[3]; 6.25 μM photosensitizer
  Cell viability, Dark Cytotoxicity against AsPC-1: 101.61%
[3]; 12.5 μM photosensitizer
  Cell viability, Dark Cytotoxicity against AsPC-1: 103.72%
[3]; 25 μM photosensitizer
  Cell viability, Dark Cytotoxicity against AsPC-1: 97.17%
[3]; 50 μM photosensitizer
  Cell viability, Dark Cytotoxicity against AsPC-1: 90.14%
[4]; 3.12 μM photosensitizer
  Cell viability, Dark cytotoxicity against MIA-PaCa-2: 107.39%
[4]; 6.25 μM photosensitizer
  Cell viability, Dark cytotoxicity against MIA-PaCa-2: 104.17%
[4]; 12.5 μM photosensitizer
  Cell viability, Dark cytotoxicity against MIA-PaCa-2: 101.89%
[4]; 25 μM photosensitizer
  Cell viability, Dark cytotoxicity against MIA-PaCa-2: 99.23%
[4]; 50 μM photosensitizer
  Cell viability, Dark cytotoxicity against MIA-PaCa-2: 88.84%
[5]; 3.12 μM photosensitizer
  Cell viability, Phototoxicity against AsPC-1: 85.97%
[5]; 6.25 μM photosensitizer
  Cell viability, Phototoxicity against AsPC-1: 43.03%
[5]; [7]
  Inhibition of AsPC-1 (PDT): 75%
[5]; 12.5 μM photosensitizer
  Cell viability, Phototoxicity against AsPC-1: 24.03%
[5]; 25 μM photosensitizer
  Cell viability, Phototoxicity against AsPC-1: 10.35%
[5]; 50 μM photosensitizer
  Cell viability, Phototoxicity against AsPC-1: 6.63%
[6]; 3.12 μM photosensitizer
  Cell viability, Phototoxicity against PANC-1: 66.14%
[6]; 6.25 μM photosensitizer
  Cell viability, Phototoxicity against PANC-1: 31.56%
[6]; [7]
  Inhibition of PANC-1 (PDT): 88%
[6]; 12.5 μM photosensitizer
  Cell viability, Phototoxicity against PANC-1: 12.33%
[6]; 25 μM photosensitizer
  Cell viability, Phototoxicity against PANC-1: 11.58%
[6]; 50 μM photosensitizer
  Cell viability, Phototoxicity against PANC-1: 11.87%
